Measurements taken from ChEMBL document CHEMBL1124471, “Design and synthesis of inhibitors of N8-acetylspermidine deacetylase” (J Med Chem, 1989).

Tested on: N8-acetylspermidine deacetylase (Rattus norvegicus); call rule not given here
Assay: Inhibition of [acetyl-3H]-N8-Acetylspermidine deacetylase; NI = No inhibition

COC(=O)NCCCCCCN was tested, and the Ki app was “Not Active”.
